Experimental data taken from US20060160915A1, “Photocurable compositions” (priority 2003, published 2006).

Experiment: Solubility properties in acrylate monomers
Format: physicochemical
Settings: 0.2 g in 2.5 g TMP(3EO)TA, 40° C.
Procedure: For determining the solubility properties in acrylate monomers, which are customarily used for the preparation of overprint varnishes and UV-curable inks, 0.2 g each of the compounds obtained according to Examples 1 and 2 is stirred into 2.5 g of the acrylate monomer in question. In dipropylene glycol diacrylate (DPGDA) both compounds have dissolved within a period of 15 minutes at room temperature. In ethoxylated trimethylolpropane triacrylate (TMP(3EO)TA) the compound according to Example 2 dissolves within a period of 10 minutes at 40° C., while the compound according to Example 1 dissolves after only 4 minutes' heating at 40° C.

Row | time to dissolve in ethoxylated trimethylolpropane triacrylate (TMP(3EO)TA) | SMILES
1 | 4 min | Cc1cccc(C(=O)c2ccc(-c3ccccc3)cc2)c1 [Example 1, 3-methyl-4′-phenylbenzophenone]
2 | ≤ 10 min | Cc1cc(C)c(C(=O)c2ccc(-c3ccccc3)cc2)c(C)c1 [Example 2, 2,4,6-trimethyl-4′-phenylbenzophenone]
